Data reported in BindingDB's records for doi:10.1111/j.1747-0285.2007.00594.x (Pfizer, 2007).

What was measured:
Test in all cases: Enzymatic Activity Assay
Details in all cases: pH 7.5; 22 °C
[1] = molecular target: Serine/threonine-protein kinase PLK2 (Homo sapiens, UniProt Q9NYY3)
[2] = molecular target: Serine/threonine-protein kinase PLK3 (Homo sapiens, UniProt Q9H4B4)
[3] = molecular target: Serine/threonine-protein kinase PLK1 (Homo sapiens, UniProt P53350)
Chain of Serine/threonine-protein kinase PLK1 (P53350 whole entry): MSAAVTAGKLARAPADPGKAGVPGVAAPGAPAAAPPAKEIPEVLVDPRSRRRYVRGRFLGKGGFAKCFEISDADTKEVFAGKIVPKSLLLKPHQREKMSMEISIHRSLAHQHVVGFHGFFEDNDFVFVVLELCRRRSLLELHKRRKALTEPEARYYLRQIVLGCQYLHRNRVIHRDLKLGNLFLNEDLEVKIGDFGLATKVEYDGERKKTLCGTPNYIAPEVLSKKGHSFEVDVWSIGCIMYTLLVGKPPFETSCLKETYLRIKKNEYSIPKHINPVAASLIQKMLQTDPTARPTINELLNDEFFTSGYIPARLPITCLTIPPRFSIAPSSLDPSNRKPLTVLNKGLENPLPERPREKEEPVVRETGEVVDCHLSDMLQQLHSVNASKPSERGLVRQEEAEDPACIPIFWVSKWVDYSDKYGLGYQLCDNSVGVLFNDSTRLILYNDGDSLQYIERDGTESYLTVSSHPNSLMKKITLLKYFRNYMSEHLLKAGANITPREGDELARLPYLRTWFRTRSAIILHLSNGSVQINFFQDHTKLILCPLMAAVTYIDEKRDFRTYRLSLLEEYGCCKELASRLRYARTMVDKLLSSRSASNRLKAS

Chain of Serine/threonine-protein kinase PLK2 (Q9NYY3 whole entry): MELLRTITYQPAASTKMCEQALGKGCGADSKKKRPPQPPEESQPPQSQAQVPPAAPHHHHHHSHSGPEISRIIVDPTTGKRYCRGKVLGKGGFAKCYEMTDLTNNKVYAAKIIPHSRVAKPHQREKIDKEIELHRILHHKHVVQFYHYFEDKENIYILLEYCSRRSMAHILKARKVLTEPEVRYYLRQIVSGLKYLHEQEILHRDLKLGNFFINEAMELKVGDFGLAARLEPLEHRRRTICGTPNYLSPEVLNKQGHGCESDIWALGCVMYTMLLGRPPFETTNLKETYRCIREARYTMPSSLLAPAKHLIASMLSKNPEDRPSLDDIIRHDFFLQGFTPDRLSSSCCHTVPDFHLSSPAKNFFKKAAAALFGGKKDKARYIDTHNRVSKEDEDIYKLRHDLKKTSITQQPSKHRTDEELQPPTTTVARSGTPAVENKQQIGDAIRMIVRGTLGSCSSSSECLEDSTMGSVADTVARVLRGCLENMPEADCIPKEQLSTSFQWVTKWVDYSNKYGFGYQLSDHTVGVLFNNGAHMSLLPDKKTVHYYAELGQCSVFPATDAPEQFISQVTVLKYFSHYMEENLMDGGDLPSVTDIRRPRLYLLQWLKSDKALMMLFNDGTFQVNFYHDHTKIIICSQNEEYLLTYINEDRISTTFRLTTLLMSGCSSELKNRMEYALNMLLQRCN
Chain of Serine/threonine-protein kinase PLK3 (Q9H4B4 whole entry): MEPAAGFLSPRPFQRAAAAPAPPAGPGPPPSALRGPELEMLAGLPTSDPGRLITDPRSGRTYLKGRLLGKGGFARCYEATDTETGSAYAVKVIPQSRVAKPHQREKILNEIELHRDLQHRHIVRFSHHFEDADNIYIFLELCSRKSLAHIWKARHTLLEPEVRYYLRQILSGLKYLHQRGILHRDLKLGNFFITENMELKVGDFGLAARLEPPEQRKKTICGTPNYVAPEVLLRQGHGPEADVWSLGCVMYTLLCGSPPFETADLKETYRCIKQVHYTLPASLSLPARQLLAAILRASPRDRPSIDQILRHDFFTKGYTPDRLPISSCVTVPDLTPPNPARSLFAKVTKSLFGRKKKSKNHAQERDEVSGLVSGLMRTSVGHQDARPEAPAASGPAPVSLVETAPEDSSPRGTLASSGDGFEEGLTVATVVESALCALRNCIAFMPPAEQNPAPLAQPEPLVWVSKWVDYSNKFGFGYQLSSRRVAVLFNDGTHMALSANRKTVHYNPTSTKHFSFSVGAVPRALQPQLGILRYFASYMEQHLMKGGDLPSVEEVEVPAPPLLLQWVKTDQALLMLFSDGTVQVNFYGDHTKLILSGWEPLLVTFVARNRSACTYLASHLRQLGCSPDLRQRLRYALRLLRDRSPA

Row | IC50 [1] [nM] | IC50 [2] [nM] | IC50 [3] [nM] | SMILES
1 | 367 | 3490 | 345 | CC(=O)c1cnc(Nc2ccc(N3CCN(C)CC3)cc2)nc1NC1CCCC1 [1-[4-(cyclopentylamino)-2-{[4-(4-methylpiperazin-1-yl)phenyl]amino}pyrimidin-5-yl]ethan-1-one]
2 | 11.5 | 6.7 | 5 | CC[C@@H]1C(=O)N(C)c2cnc(Nc3ccc(C(=O)NC4CCN(C)CC4)cc3)nc2N1C1CCCC1 [4-{[(7R)-8-cyclopentyl-7-ethyl-5-methyl-6-oxo-5,6,7,8-tetrahydropteridin-2-yl]amino}-N-(1-methylpiperidin-4-yl)benzamide]
3 | > 10000 | 2580 | 145 | COc1cc(N2CCN(C)CC2)ccc1Nc1ncc(C(C)=O)c(NC2CCCC2)n1 [1-[4-(cyclopentylamino)-2-{[2-methoxy-4-(4-methylpiperazin-1-yl)phenyl]amino}pyrimidin-5-yl]ethan-1-one]
